Experimental data published in ChEMBL document CHEMBL1201861, “Genomics of Drug Sensitity in Cancer screening data, Wellcome Trust Sanger Institute”.

Columns and labels:
Assay in all cases: cells
ESS-1 = assay type: functional, cell-based, Homo sapiens; settings: Homo sapiens, ESS-1;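 note: growth inhibition of human ESS-1 cells, read out by a cell viability assay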
Description: SANGER: Inhibition of human ESS-1 cell growth in a cell viability assay.

MG-63 = assay type: functional, cell-based, Homo sapiens; settings: Homo sapiens, MG-63;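 note: growth inhibition of human MG-63 cells, read out with a cell viability assay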
Description: SANGER: Inhibition of human MG-63 cell growth in a cell viability assay.

LN-405 = assay type: functional, cell-based, Homo sapiens; settings: Homo sapiens, LN-405
Description: SANGER: Inhibition of human LN-405 cell growth in a cell viability assay.

NCI-H661 = assay type: functional, cell-based, Homo sapiens; settings: Homo sapiens, NCI-H661;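 note: cell viability assay read-out, IC50 being the concentration that inhibits growth of the cells by half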
Description: SANGER: Inhibition of human NCI-H661 cell growth in a cell viability assay.

NCI-H2347 = assay type: functional, cell-based, Homo sapiens; settings: Homo sapiens, NCI-H2347;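 note: growth inhibition of the cell line, read out with a cell viability assay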
Description: SANGER: Inhibition of human NCI-H2347 cell growth in a cell viability assay.

TCC-SUP = assay type: functional, cell-based, Homo sapiens; settings: Homo sapiens, TCC-SUP;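 note: growth inhibition of TCC-SUP cells, read out with a cell viability assay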
Description: SANGER: Inhibition of human TCCSUP cell growth in a cell viability assay.

HCC1395 = assay type: functional, cell-based, Homo sapiens; settings: Homo sapiens, HCC1395;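 note: growth inhibition of HCC1395 cells, read out by a cell viability assay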
Description: SANGER: Inhibition of human HCC1395 cell growth in a cell viability assay.

KNS-42 = assay type: functional, cell-based, Homo sapiens; settings: Homo sapiens, KNS-42;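 note: growth inhibition of KNS-42 cells, read out with a cell viability assay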
Description: SANGER: Inhibition of human KNS-42 cell growth in a cell viability assay.

no-10 = assay type: functional, cell-based, Homo sapiens; settings: Homo sapiens;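 note: growth inhibition of no-10 cells, read out with a cell viability assay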
Description: SANGER: Inhibition of human no-10 cell growth in a cell viability assay.

KINGS-1 = assay type: functional, cell-based, Homo sapiens; settings: Homo sapiens, KINGS-1;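 note: cell viability assay measuring suppression of KINGS-1 cell growth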
Description: SANGER: Inhibition of human KINGS-1 cell growth in a cell viability assay.

MPP-89 = assay type: functional, cell-based, Homo sapiens; settings: Homo sapiens, MPP-89;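 note: growth inhibition of human MPP-89 cells, read out with a cell viability assay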
Description: SANGER: Inhibition of human MPP-89 cell growth in a cell viability assay.

C32 = assay type: functional, cell-based, Homo sapiens; settings: Homo sapiens, C32;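 note: cell viability assay, with IC50 reflecting inhibition of C32 cell growth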
Description: SANGER: Inhibition of human C32 cell growth in a cell viability assay.

COR-L23 = assay type: functional, cell-based, Homo sapiens; settings: Homo sapiens, COR-L23;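 note: cell viability assay measuring how strongly compounds suppress growth of COR-L23 cells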
Description: SANGER: Inhibition of human COR-L23 cell growth in a cell viability assay.

NCI-H2405 = assay type: functional, cell-based, Homo sapiens; settings: Homo sapiens, NCI-H2405;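 note: growth inhibition of the human cell line, read out with a cell viability assay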
Description: SANGER: Inhibition of human NCI-H2405 cell growth in a cell viability assay.

D-247MG = assay type: functional, cell-based, Homo sapiens; settings: Homo sapiens, D-247MG
Description: SANGER: Inhibition of human D-247MG cell growth in a cell viability assay.

ES1 = assay type: functional, cell-based, Homo sapiens; settings: Homo sapiens, ES1;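 note: growth inhibition of ES1 cells, read out with a cell viability assay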
Description: SANGER: Inhibition of human ES1 cell growth in a cell viability assay.

KS-1 = assay type: functional, cell-based, Homo sapiens; settings: Homo sapiens, KS-1;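 note: growth inhibition of KS-1 cells, read out with a cell viability assay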
SiHa = assay type: functional, cell-based, Homo sapiens; settings: Homo sapiens, SiHa;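 note: Viability-based readout of growth inhibition in SiHa cells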
Description: SANGER: Inhibition of human SiHa cell growth in a cell viability assay.

ACN = assay type: functional, cell-based, Homo sapiens; settings: Homo sapiens, ACN;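 note: growth inhibition of the human ACN cell line, read out via cell viability testing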
Description: SANGER: Inhibition of human ACN cell growth in a cell viability assay.

C3A = assay type: functional, cell-based, Homo sapiens; settings: Homo sapiens, C3A;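 note: growth inhibition of C3A human cells, quantified with a cell viability readout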
Description: SANGER: Inhibition of human C3A cell growth in a cell viability assay.

J-RT3-T3-5 = assay type: functional, cell-based; settings: Homo sapiens;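 note: cell viability assay measuring growth inhibition of human J-RT3-T3-5 cells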
Description: SANGER: Inhibition of human J-RT3-T3-5 cell growth in a cell viability assay.

TE-8 = assay type: functional, cell-based, Homo sapiens; settings: Homo sapiens, TE-8;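 note: growth inhibition of TE-8 cells, measured with a cell viability readout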
Description: SANGER: Inhibition of human TE-8 cell growth in a cell viability assay.

SW1990 = assay type: functional, cell-based, Homo sapiens; settings: Homo sapiens, SW1990;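 note: cell growth inhibition determined with a viability assay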
Description: SANGER: Inhibition of human SW1990 cell growth in a cell viability assay.

HCC1187 = assay type: functional, cell-based, Homo sapiens; settings: Homo sapiens, HCC1187;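 note: growth inhibition of HCC1187 cells, read out with a cell viability assay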
Description: SANGER: Inhibition of human HCC1187 cell growth in a cell viability assay.

SF-126 = assay type: functional, cell-based, Homo sapiens; settings: Homo sapiens, SF-126;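 note: growth inhibition of human SF126 cells, read out with a cell viability assay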
Description: SANGER: Inhibition of human SF126 cell growth in a cell viability assay.

COLO-792 = assay type: functional, cell-based, Homo sapiens; settings: Homo sapiens, COLO-792
Description: SANGER: Inhibition of human COLO-792 cell growth in a cell viability assay.

SAOS-2 = assay type: functional, cell-based, Homo sapiens; settings: Homo sapiens, SAOS-2;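 note: growth inhibition of human Saos-2 cells determined by a cell viability assay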
Description: SANGER: Inhibition of human Saos-2 cell growth in a cell viability assay.

SW872 = assay type: functional, cell-based, Homo sapiens; settings: Homo sapiens, SW872;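 note: growth inhibition of SW872 cells, read out by a viability assay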
Description: SANGER: Inhibition of human SW872 cell growth in a cell viability assay.

CAKI-1 = assay type: functional, cell-based, Homo sapiens; settings: Homo sapiens, CAKI-1;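 note: growth inhibition of CAKI-1 cells, measured by a cell viability assay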
Description: SANGER: Inhibition of human CAKI-1 cell growth in a cell viability assay.

NCI-H358 = assay type: functional, cell-based, Homo sapiens; settings: Homo sapiens, NCI-H358;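 note: growth inhibition of NCI-H358 human cells, read out with a cell viability assay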
Description: SANGER: Inhibition of human NCI-H358 cell growth in a cell viability assay.

NCI-H2087 = assay type: functional, cell-based, Homo sapiens; settings: Homo sapiens, NCI-H2087;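 note: growth inhibition determined with a cell viability readout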
Description: SANGER: Inhibition of human NCI-H2087 cell growth in a cell viability assay.

SW626 = assay type: functional, cell-based, Homo sapiens; settings: Homo sapiens, SW626;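 note: growth inhibition of SW626 cells, measured with a cell viability assay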
Description: SANGER: Inhibition of human SW626 cell growth in a cell viability assay.

EOL1 = assay type: functional, cell-based; settings: Homo sapiens;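 note: growth inhibition of EoL-1 cells, read out by a cell viability assay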
Description: SANGER: Inhibition of human EoL-1-cell cell growth in a cell viability assay.

NKM-1 = assay type: functional, cell-based; settings: Homo sapiens;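 note: growth inhibition of NKM-1 cells, read out with a cell viability assay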
NCI-H292 = assay type: functional, cell-based, Homo sapiens; settings: Homo sapiens, NCI-H292;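 note: growth inhibition of NCI-H292 cells, read out with a cell viability assay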
Description: SANGER: Inhibition of human NCI-H292 cell growth in a cell viability assay.

RVH-421 = assay type: functional, cell-based, Homo sapiens; settings: Homo sapiens, RVH-421
Description: SANGER: Inhibition of human RVH-421 cell growth in a cell viability assay.

NCI-H82 = assay type: functional, cell-based; settings: Homo sapiens;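 note: growth inhibition of NCI-H82 cells, measured with a cell viability readout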
Description: SANGER: Inhibition of human NCI-H82 cell growth in a cell viability assay.

BPH-1 = assay type: functional, cell-based, Homo sapiens; settings: Homo sapiens, BPH-1;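 note: cell viability assay measuring growth inhibition of human BPH-1 cells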
Description: SANGER: Inhibition of human BPH-1 cell growth in a cell viability assay.

CAL-85-1 = assay type: functional, cell-based; settings: Homo sapiens;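 note: growth inhibition of human CAL-85-1 cells, read out with a cell viability assay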
JVM-3 = assay type: functional, cell-based; settings: Homo sapiens;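 note: growth inhibition of human JVM-3 cells, read out with a cell viability assay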
Description: SANGER: Inhibition of human JVM-3 cell growth in a cell viability assay.

CAL-62 = assay type: functional, cell-based, Homo sapiens; settings: Homo sapiens, CAL-62;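 note: growth inhibition of CAL-62 cells, read out with a cell viability assay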
Description: SANGER: Inhibition of human CAL-62 cell growth in a cell viability assay.

NB5 = assay type: functional, cell-based, Homo sapiens; settings: Homo sapiens, NB5;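 note: growth inhibition of NB5 cells, read out as cell viability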
Description: SANGER: Inhibition of human NB5 cell growth in a cell viability assay.

AN3-CA = assay type: functional, cell-based; settings: Homo sapiens;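 note: growth inhibition of human AN3-CA cells measured by a cell viability assay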
Description: SANGER: Inhibition of human AN3-CA cell growth in a cell viability assay.

LB373-MEL-D = assay type: functional, cell-based, Homo sapiens; settings: Homo sapiens, LB373-MEL-D;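 note: growth inhibition of the cell line, read out in a cell viability assay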
Description: SANGER: Inhibition of human LB373-MEL-D cell growth in a cell viability assay.

COLO-824 = assay type: functional, cell-based, Homo sapiens; settings: Homo sapiens, COLO-824
Description: SANGER: Inhibition of human COLO-824 cell growth in a cell viability assay.

KYSE-70 cell line = assay type: functional, cell-based, Homo sapiens; settings: Homo sapiens, KYSE-70;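 note: cell viability assay read-out, with IC50 expressing suppression of KYSE-70 cell growth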
Description: SANGER: Inhibition of human KYSE-70 cell growth in a cell viability assay.

OCUB-M = assay type: functional, cell-based, Homo sapiens; settings: Homo sapiens, OCUB-M;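 note: growth inhibition of the cancer cell line, read out through a cell viability assay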
Description: SANGER: Inhibition of human OCUB-M cell growth in a cell viability assay.

LAN-6 = assay type: functional, cell-based, Homo sapiens; settings: Homo sapiens, LAN-6;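 note: growth inhibition of LAN-6 cells, determined with a cell viability assay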
Description: SANGER: Inhibition of human LAN-6 cell growth in a cell viability assay.

SK-LU-1 = assay type: functional, cell-based, Homo sapiens; settings: Homo sapiens, SK-LU-1;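 note: cell viability assay measuring growth inhibition of human SK-LU-1 cells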
Description: SANGER: Inhibition of human SK-LU-1 cell growth in a cell viability assay.

OVCAR-8 = assay type: functional, cell-based, Homo sapiens; settings: Homo sapiens, OVCAR-8;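 note: growth inhibition of human OVCAR-8 cells, read out by a cell viability assay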
Description: SANGER: Inhibition of human OVCAR-8 cell growth in a cell viability assay.

SAS = assay type: functional, cell-based, Homo sapiens; settings: Homo sapiens, SAS;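 note: growth inhibition of SAS cells, read out with a cell viability assay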
Description: SANGER: Inhibition of human SAS cell growth in a cell viability assay.

In the case of `CN(C)C/C=C/C(=O)Nc1cc2c(Nc3ccc(F)c(Cl)c3)ncnc2cc1O[C@H]1CCOC1` [AFATINIB], the IC50 (ESS-1) is reported as over 0.5 µM, the IC50 (MG-63) is reported as over 0.5 µM and the IC50 (LN-405) is reported as over 0.5 µM. The IC50 (NCI-H661) was over 0.5 µM, the IC50 (NCI-H2347) was over 0.5 µM and the IC50 (TCC-SUP) was over 0.5 µM. For the same compound, the IC50 (HCC1395) was over 0.5 µM, the IC50 (KNS-42) was over 0.5 µM and the IC50 (no-10) was over 0.5 µM. For the same compound, the IC50 (KINGS-1) was over 0.5 µM, the IC50 (MPP-89) was over 0.5 µM and the IC50 (C32) was over 0.5 µM. For the same compound, the IC50 (COR-L23) was over 0.5 µM, the IC50 (NCI-H2405) was over 0.5 µM and the IC50 (D-247MG) was over 0.5 µM. For the same compound, the IC50 (ES1) was over 0.5 µM, the IC50 (KS-1) was over 0.5 µM and the IC50 (SiHa) was over 0.5 µM. It also gave an IC50 (ACN) of over 0.5 µM, an IC50 (C3A) of over 0.5 µM and an IC50 (J-RT3-T3-5) of over 0.5 µM. It also gave an IC50 (TE-8) of over 0.5 µM, an IC50 (SW1990) of over 0.5 µM and an IC50 (HCC1187) of over 0.5 µM. The IC50 (SF-126) was over 0.5 µM, the IC50 (COLO-792) was over 0.5 µM and the IC50 (SAOS-2) was over 0.5 µM. For the same compound, the IC50 (SW872) was over 0.5 µM, the IC50 (CAKI-1) was over 0.5 µM and the IC50 (NCI-H358) was over 0.5 µM. It also gave an IC50 (NCI-H2087) of over 0.5 µM, an IC50 (SW626) of over 0.5 µM and an IC50 (EOL1) of 0.269 µM. For the same compound, the IC50 (NKM-1) was over 0.5 µM, the IC50 (NCI-H292) was 0.0609 µM and the IC50 (RVH-421) was over 0.5 µM. It also gave an IC50 (NCI-H82) of over 0.5 µM, an IC50 (BPH-1) of 0.0599 µM and an IC50 (CAL-85-1) of over 0.5 µM. It also gave an IC50 (JVM-3) of over 0.5 µM, an IC50 (CAL-62) of over 0.5 µM and an IC50 (NB5) of over 0.5 µM. For the same compound, the IC50 (AN3-CA) was over 0.5 µM, the IC50 (LB373-MEL-D) was over 0.5 µM and the IC50 (COLO-824) was over 0.5 µM. For the same compound, the IC50 (KYSE-70 cell line) was over 0.5 µM, the IC50 (OCUB-M) was over 0.5 µM and the IC50 (LAN-6) was over 0.5 µM. It also gave an IC50 (SK-LU-1) of over 0.5 µM, an IC50 (OVCAR-8) of over 0.5 µM and an IC50 (SAS) of 0.484 µM.
For `CC(=O)O[C@@]12CO[C@@H]1C[C@H](O)[C@@]1(C)C(=O)[C@H](O)C3=C(C)[C@@H](OC(=O)[C@H](O)[C@@H](NC(=O)OC(C)(C)C)c4ccccc4)C[C@@](O)([C@@H](OC(=O)c4ccccc4)[C@H]21)C3(C)C` [DOCETAXEL], the IC50 (ESS-1) was 0.000179 µM, the IC50 (MG-63) was 0.00151 µM and the IC50 (LN-405) was 0.00482 µM. The IC50 (NCI-H661) was over 0.01 µM, the IC50 (NCI-H2347) was over 0.01 µM and the IC50 (TCC-SUP) was over 0.01 µM. For the same compound, the IC50 (HCC1395) was over 0.01 µM, the IC50 (KNS-42) was 0.00412 µM and the IC50 (no-10) was 0.00788 µM. For the same compound, the IC50 (KINGS-1) was 0.00117 µM, the IC50 (MPP-89) was 0.00567 µM and the IC50 (C32) was over 0.01 µM. The IC50 (COR-L23) was 0.0022 µM, the IC50 (NCI-H2405) was over 0.01 µM and the IC50 (D-247MG) was 0.00173 µM. The IC50 (ES1) was 0.00077 µM, the IC50 (KS-1) was 0.00144 µM and the IC50 (SiHa) was 0.0043 µM. For the same compound, the IC50 (ACN) was 0.00644 µM, the IC50 (C3A) was over 0.01 µM and the IC50 (J-RT3-T3-5) was 0.00235 µM. The IC50 (TE-8) was 0.000366 µM, the IC50 (SW1990) was over 0.01 µM and the IC50 (SF-126) was 0.00329 µM. It also gave an IC50 (COLO-792) of over 0.01 µM, an IC50 (SAOS-2) of 0.00168 µM and an IC50 (SW872) of over 0.01 µM. The IC50 (CAKI-1) was over 0.01 µM, the IC50 (NCI-H358) was 0.00758 µM and the IC50 (NCI-H2087) was 0.00748 µM. It also gave an IC50 (SW626) of 0.00624 µM, an IC50 (EOL1) of 0.00173 µM and an IC50 (NKM-1) of over 0.01 µM. It also gave an IC50 (NCI-H292) of 0.000159 µM, an IC50 (RVH-421) of 0.00461 µM and an IC50 (NCI-H82) of 0.00822 µM. It also gave an IC50 (BPH-1) of 0.00102 µM, an IC50 (CAL-85-1) of over 0.01 µM and an IC50 (JVM-3) of 0.00233 µM. The IC50 (CAL-62) was 0.000185 µM, the IC50 (NB5) was over 0.01 µM and the IC50 (AN3-CA) was 0.00507 µM. The IC50 (LB373-MEL-D) was over 0.01 µM, the IC50 (COLO-824) was 0.0059 µM and the IC50 (KYSE-70 cell line) was 0.00624 µM. It also gave an IC50 (OCUB-M) of 0.00438 µM, an IC50 (LAN-6) of over 0.01 µM and an IC50 (SK-LU-1) of over 0.01 µM. The IC50 (OVCAR-8) was 0.00212 µM and the IC50 (SAS) was 0.00134 µM.
